Assay results: patent US20110039770A1, “INHIBITORS OF PROTEIN KINASE C ISOFORMS AND USES THEREOF” (PHARMAGAP INC., priority 2005, published 2011)
Where two headings read alike, the source gives them in different places. Where a SMILES comes first, the peptide text is derived from it. The star is where a group is joined. PNA(A) = NCCN(CC(=O)*)C(=O)Cn1cnc2c(N)ncnc21

Assays:
PKC alpha = PKC alpha (Homo sapiens, UniProt P17252); assay: PepTag Non-Radioactive PKC Assay, purified isoform; assay type: biochemical; parameters: purchased; conditions: negative = activation
Experimental: (§1) The inhibitory effect of the PKI compounds 1 to 10 on purified commercially available isoforms representative of the 3 classes of PKC: cPKC (alpha, betaI/II) nPKC (delta and epsilon) aPKC (zeta) was assayed using the PepTag® Non-Radioactive PKC Assay (Promega, Madison, Wis.). The zeta isoform was tested with this assay although its affinity for the substrate provided in the kit was relatively low. The amount of enzyme in the reaction mixture for the PKC zeta assays was multiplied by 2. The assay was used following the manufacturer's recommendations. The principle of the assay is based on the difference in charge of phosphorylated (negatively charged) form versus the non-phoshorylated form of a fluorescent substrate. The two forms can be separated by gel electrophoresis and the negatively charged band excised and the fluorescence measured (exc. 440 nm and em. 590 nm) in 96 well plates on a Galaxy FluoStar plate reader. The PKI compounds were added to the assay mixture at 3 doses: 150, 300 and 600 μM and an extra 75 μM when the inhibition was too high. The assay is strictly biochemical and the doses of the compounds used, therefore, are generally not correlative with in vivo situations.

PKC zeta = molecular target: T1, PKC zeta (Homo sapiens, UniProt Q05513); assay: PepTag Non-Radioactive PKC Assay, purified isoform; assay type: biochemical; parameters: purchased; conditions: enzyme amount x2, negative = activation
T1 sequence (Q05513 1-592): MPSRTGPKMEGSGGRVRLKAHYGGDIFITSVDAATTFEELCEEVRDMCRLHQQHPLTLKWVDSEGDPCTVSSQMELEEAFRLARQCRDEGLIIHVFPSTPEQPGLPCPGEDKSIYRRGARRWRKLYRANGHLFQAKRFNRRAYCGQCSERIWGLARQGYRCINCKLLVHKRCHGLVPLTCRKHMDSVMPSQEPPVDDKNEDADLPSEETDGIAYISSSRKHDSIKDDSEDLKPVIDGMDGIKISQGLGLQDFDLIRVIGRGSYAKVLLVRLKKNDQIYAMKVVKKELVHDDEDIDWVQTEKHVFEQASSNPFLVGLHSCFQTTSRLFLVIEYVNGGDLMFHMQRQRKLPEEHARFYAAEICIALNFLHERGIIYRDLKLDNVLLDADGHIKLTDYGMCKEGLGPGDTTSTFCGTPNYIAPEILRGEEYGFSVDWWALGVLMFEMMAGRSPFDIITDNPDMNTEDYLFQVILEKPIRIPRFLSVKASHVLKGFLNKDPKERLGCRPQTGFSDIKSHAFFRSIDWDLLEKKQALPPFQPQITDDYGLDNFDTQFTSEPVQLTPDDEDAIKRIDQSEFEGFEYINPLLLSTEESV
Experimental: as §1

PKC beta 1 = PKC beta 1 (Homo sapiens, UniProt P05771); assay: PepTag Non-Radioactive PKC Assay, purified isoform; assay type: biochemical; parameters: purchased; conditions: negative = activation
Experimental: as §1

PKC epsilon = molecular target: T2, PKC epsilon (Homo sapiens, UniProt Q02156); assay: PepTag Non-Radioactive PKC Assay, purified isoform; assay type: biochemical; parameters: purchased; conditions: negative = activation
T2 sequence (Q02156 1-737): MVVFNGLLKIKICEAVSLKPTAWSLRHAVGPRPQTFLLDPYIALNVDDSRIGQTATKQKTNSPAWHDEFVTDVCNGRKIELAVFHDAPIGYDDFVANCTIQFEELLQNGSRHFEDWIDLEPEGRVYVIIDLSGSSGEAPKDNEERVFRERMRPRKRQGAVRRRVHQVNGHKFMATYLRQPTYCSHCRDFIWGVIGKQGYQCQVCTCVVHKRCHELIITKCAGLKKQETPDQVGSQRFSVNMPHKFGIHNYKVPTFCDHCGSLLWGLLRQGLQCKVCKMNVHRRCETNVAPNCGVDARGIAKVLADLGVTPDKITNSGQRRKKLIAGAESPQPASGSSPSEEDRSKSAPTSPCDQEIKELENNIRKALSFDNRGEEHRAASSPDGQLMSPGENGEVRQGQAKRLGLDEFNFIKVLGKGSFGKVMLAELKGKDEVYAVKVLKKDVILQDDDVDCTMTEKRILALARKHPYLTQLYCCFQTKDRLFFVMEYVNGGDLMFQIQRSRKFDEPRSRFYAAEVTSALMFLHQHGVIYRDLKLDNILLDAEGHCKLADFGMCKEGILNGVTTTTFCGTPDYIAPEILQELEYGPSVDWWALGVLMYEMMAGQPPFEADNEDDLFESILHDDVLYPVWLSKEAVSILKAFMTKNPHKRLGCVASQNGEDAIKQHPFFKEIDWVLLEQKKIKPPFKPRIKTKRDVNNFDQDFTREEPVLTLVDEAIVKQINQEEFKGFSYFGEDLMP
Experimental: as §1

PKC beta 2 = molecular target: T3, PKC beta 2 (Homo sapiens, UniProt P05771); assay: PepTag Non-Radioactive PKC Assay, purified isoform; assay type: biochemical; conditions: negative = activation
T3 construct: purchased
Experimental: as §1

PKC delta = PKC delta (Homo sapiens, UniProt Q05655); assay: PepTag Non-Radioactive PKC Assay, purified isoform; assay type: biochemical; conditions: negative = activation
Experimental: as §1

[1] = tested on: IMR-32 human neuroblastoma cells
Experimental: The ability of compounds PKI 1, PKI 2 and PKI 3 to inhibit cancer cell proliferation was tested in vitro using the human neuroblastoma cell line IMR-32. Monolayer cell cultures were trypsinized and the test compound was added at the doses indicated in Table 24 and internalized by pinocytic endocytosis using Influx TM pinocytic cell-loading reagent, a kit from Molecular Probes (Eugene, Oreg.) following the manufacturer's recommendations. The indicated doses refer to the concentration in the loading medium, which was used on 1×10^6 cells in a 10 μl volume, i.e. contained 10 μg to 100 ug of test compound that provides […] per cell. […] The cells were treated on day 0 of the experiment. The cells loaded with test compound were cultured in 96 well plates (5,000 cells in 100 μl per well), and the proliferation was monitored over 3 consecutive days. The increase in cell population was quantified using a Hoechst reagent-based assay (modified from Rao and Otto, 1992, Analytical Biochem. 207:186-192) that measures the total DNA of the population. Fluorescence was measured using a Millipore CytoFluor 2350 plate reader (excitation at 360 nm and emission at 460 nm). The measurements were obtained as relative fluorescence intensity, a value that is directly correlated to the total number of cells. Data are expressed as a percentage of matching controls that were supplemented with culture medium alone.
The ability of the compound TIM 9 to inhibit cancer cell proliferation was tested in vitro using the human neuroblastoma cell line IMR-32 and following the general protocol described in Example 14.
The ability of the compound TIM 11 to inhibit IMR-32 cancer cell proliferation was tested in vitro following the general protocol described in Example 14.
The ability of the compound TIM 10 to inhibit cancer cell proliferation was tested in vitro using the human neuroblastoma IMR-32 cell line and following the general protocol described in Example 14.

Sequence of PKC delta (Q05655 whole entry, canonical isoform): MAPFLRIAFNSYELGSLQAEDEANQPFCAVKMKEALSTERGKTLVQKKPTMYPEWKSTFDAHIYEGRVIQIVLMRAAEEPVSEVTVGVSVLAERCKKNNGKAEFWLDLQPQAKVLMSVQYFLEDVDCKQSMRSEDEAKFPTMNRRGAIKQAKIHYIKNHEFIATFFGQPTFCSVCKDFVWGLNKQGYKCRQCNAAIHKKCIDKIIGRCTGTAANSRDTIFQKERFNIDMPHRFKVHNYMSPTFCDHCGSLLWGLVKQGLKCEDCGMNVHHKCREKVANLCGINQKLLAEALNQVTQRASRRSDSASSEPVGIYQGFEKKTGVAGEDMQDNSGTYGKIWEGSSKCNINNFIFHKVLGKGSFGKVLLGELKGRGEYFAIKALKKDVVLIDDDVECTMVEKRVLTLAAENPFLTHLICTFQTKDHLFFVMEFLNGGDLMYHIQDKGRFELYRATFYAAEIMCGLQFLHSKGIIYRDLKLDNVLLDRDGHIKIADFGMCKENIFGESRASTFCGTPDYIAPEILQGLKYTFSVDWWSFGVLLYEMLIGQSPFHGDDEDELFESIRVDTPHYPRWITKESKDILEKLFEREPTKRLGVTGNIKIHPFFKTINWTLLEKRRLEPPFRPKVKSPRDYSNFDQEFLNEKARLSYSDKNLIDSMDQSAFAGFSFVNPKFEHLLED
Sequence of PKC beta 1 (P05771 whole entry, canonical isoform): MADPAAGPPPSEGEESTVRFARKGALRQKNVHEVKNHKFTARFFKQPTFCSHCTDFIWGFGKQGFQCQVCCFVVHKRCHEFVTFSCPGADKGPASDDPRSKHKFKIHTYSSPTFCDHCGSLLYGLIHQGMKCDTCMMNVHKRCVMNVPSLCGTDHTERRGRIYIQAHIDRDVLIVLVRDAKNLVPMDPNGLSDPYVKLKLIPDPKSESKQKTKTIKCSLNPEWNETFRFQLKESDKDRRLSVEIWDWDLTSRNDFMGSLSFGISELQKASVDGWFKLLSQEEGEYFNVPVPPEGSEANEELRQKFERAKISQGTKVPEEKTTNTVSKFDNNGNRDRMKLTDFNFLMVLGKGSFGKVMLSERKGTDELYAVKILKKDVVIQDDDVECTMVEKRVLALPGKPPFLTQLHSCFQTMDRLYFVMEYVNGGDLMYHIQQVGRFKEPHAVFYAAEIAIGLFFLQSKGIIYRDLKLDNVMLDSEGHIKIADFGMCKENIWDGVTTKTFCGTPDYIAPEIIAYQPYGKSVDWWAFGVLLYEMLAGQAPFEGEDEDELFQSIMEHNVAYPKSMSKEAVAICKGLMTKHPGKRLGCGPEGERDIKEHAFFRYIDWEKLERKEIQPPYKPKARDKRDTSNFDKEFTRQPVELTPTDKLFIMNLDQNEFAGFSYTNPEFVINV
T3 sequence (P05771 1-673 isoform P05771-2): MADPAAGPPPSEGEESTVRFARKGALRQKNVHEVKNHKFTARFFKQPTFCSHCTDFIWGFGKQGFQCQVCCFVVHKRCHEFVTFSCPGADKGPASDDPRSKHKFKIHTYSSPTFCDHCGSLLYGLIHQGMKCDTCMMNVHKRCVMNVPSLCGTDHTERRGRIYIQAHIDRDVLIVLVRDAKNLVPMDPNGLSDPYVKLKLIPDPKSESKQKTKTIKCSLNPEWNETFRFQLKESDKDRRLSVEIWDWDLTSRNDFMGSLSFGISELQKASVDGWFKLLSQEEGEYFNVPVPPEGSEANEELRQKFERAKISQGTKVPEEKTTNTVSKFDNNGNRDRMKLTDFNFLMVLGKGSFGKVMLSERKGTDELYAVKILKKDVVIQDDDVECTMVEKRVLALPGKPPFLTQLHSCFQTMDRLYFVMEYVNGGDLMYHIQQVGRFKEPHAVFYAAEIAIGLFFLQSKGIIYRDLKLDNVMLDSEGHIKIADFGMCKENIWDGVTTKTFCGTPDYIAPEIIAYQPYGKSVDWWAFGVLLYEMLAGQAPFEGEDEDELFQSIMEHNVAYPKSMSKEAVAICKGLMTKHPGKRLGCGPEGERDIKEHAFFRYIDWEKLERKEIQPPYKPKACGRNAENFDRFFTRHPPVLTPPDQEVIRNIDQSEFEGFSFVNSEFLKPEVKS

Structure (SMILES): CC(=O)N[C@@H](Cc1ccccc1)C(=O)N[C@@H](CCCNC(=N)N)C(=O)N[C@@H](CCCNC(=N)N)C(=O)N[C@@H](CCCCNC(=O)CN(CCN)C(=O)Cn1cnc2c(N)ncnc21)C(=O)N[C@@H](Cc1ccccc1)C(=O)N[C@@H](CCCNC(=N)N)C(=O)N[C@@H](CC(C)C)C(N)=O [PKI 3] (Ac-FRRK(PNA(A))FRL-NH2; C-terminus assumed)
- inhibition at 150 µM (PKC alpha; 150 μM): 47%
- inhibition at 300 µM (PKC alpha; 300 μM): 51%
- inhibition at 600 µM (PKC alpha; 600 μM): 82%
- inhibition at 150 µM (PKC zeta; 150 μM): 37%
- inhibition at 300 µM (PKC zeta; 300 μM): 40%
- inhibition at 600 µM (PKC zeta; 600 μM): 56%
- inhibition at 150 µM (PKC beta 1; 150 μM): 37%
- inhibition at 300 µM (PKC beta 1; 300 μM): 76%
- inhibition at 600 µM (PKC beta 1; 600 μM): 80%
- inhibition at 150 µM (PKC epsilon; 150 μM): 38%
- inhibition at 300 µM (PKC epsilon; 300 μM): 53%
- inhibition at 600 µM (PKC epsilon; 600 μM): 68%
- inhibition at 150 µM (PKC beta 2; 150 μM): 31%
- inhibition at 300 µM (PKC beta 2; 300 μM): 83%
- inhibition at 600 µM (PKC beta 2; 600 μM): 81%
- inhibition at 150 µM (PKC delta; 150 μM): 32%
- inhibition at 300 µM (PKC delta; 300 μM): 41%
- inhibition at 600 µM (PKC delta; 600 μM): 70%
- % Inhibition of IMR-32 proliferation ([1]; 1.0 mg/mL in loading medium, 24 h): 70%
- % Inhibition of IMR-32 proliferation ([1]; 1.0 mg/mL in loading medium, 48 h): 72%
- % Inhibition of IMR-32 proliferation ([1]; 1.0 mg/mL in loading medium, 72 h): 72%
- % Inhibition of IMR-32 proliferation ([1]; 2.5 mg/mL in loading medium, 24 h): 26%
- % Inhibition of IMR-32 proliferation ([1]; 2.5 mg/mL in loading medium, 48 h): 29%
- % Inhibition of IMR-32 proliferation ([1]; 2.5 mg/mL in loading medium, 72 h): 14%
- % Inhibition of IMR-32 proliferation ([1]; 5.0 mg/mL in loading medium, 24 h): 29%
- % Inhibition of IMR-32 proliferation ([1]; 5.0 mg/mL in loading medium, 48 h): 31%
- % Inhibition of IMR-32 proliferation ([1]; 5.0 mg/mL in loading medium, 72 h): 22%
- % Inhibition of IMR-32 proliferation ([1]; 10.0 mg/mL in loading medium, 24 h): 26%
- % Inhibition of IMR-32 proliferation ([1]; 10.0 mg/mL in loading medium, 48 h): 30%
- % Inhibition of IMR-32 proliferation ([1]; 10.0 mg/mL in loading medium, 72 h): 22%
